Results from PubChem BioAssay (NCI).
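Following 48 hours of exposure in 96-well plates, responses at five concentrations were used to interpolate endpoints linearly. At the TGI there is no net growth.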

Experiments:
Experiment in all cases: NCI-60 cell line screen, 48 h
DLD-1 colon = system: DLD-1 colon
HL-60(TB) leukemia = system: HL-60(TB) leukemia
KM20L2 colon = system: KM20L2 colon
LOX IMVI melanoma = system: LOX IMVI melanoma
NCI-H226 lung = system: NCI-H226 lung
NCI-H522 lung = system: NCI-H522 lung
OVCAR-5 ovarian = system: OVCAR-5 ovarian
RPMI-8226 leukemia = system: RPMI-8226 leukemia
SW-620 colon = system: SW-620 colon
UACC-62 melanoma = system: UACC-62 melanoma

| SMILES | TGI (DLD-1 colon) | TGI (HL-60(TB) leukemia) | TGI (KM20L2 colon) | TGI (LOX IMVI melanoma) | TGI (NCI-H226 lung) | TGI (NCI-H522 lung) | TGI (OVCAR-5 ovarian) | TGI (RPMI-8226 leukemia) | TGI (SW-620 colon) | TGI (UACC-62 melanoma) |
| --- | --- | --- | --- | --- | --- | --- | --- | --- | --- | --- |
| O=C(Nc1ccc(Cl)c(Cl)c1)C(=O)C(C(=O)c1ccccc1-c1ccccc1)C1OC(=O)c2ccccc21 (stereo not given) | 30.1 µM | 69.4 µM | 52.7 µM | 28.9 µM | 15.1 µM | 20.6 µM | 33.9 µM | 63.5 µM | 42.7 µM | 41.2 µM |
| COc1c(-c2ccccc2)nc2ccc(Oc3ccccc3)nn12 | > 100 µM | > 57.3 µM | > 100 µM | > 100 µM | 98.1 µM | > 100 µM | > 100 µM | > 70.9 µM | > 100 µM | > 100 µM |
| Cc1nc2c(o1)C(=Nc1ccccc1)c1nc(C)oc1C2=Nc1ccccc1 | 67.9 µM | > 100 µM | 70 µM | 60.4 µM | 53.6 µM | 42.7 µM | 92.4 µM | > 100 µM | > 100 µM | 39.4 µM |
| COC(=O)C1C(=O)O[C@@H](c2cc(OC)c(OC)cc2OC)C1C(=O)OC (mixture of isomers) | > 100 µM | > 100 µM | > 100 µM | > 100 µM | > 100 µM | > 100 µM | > 100 µM | > 100 µM | > 100 µM | > 100 µM |
| COC(=O)C1=CC2C=CC(C1C(=O)OC)C1C(C(=O)OC)=C(C(=O)OC)C(C(=O)OC)=C(C(=O)OC)C21OC (stereo not given) | > 100 µM | > 100 µM | > 100 µM | > 100 µM | > 100 µM | > 100 µM | > 100 µM | > 100 µM | > 100 µM | > 100 µM |
| Nc1ccccc1C(=O)CCC1C(=O)NC(=S)NC1=O | > 100 µM | > 100 µM | > 100 µM | > 100 µM | > 100 µM | > 100 µM | > 100 µM | > 100 µM | > 100 µM | > 100 µM |
| CN(/N=C/c1ccnc2ccccc12)c1c([N+](=O)[O-])cc([N+](=O)[O-])cc1[N+](=O)[O-] | > 100 µM | 61.2 µM | > 100 µM | > 100 µM | > 100 µM | 92.8 µM | > 100 µM | > 100 µM | > 100 µM | > 100 µM |
| O=C(CCN1CCCCC1)N1CCc2c([nH]c3ccccc23)C1c1cccnc1 (stereo not given) | > 100 µM | > 93.2 µM | > 70.8 µM | > 100 µM | > 100 µM | 79.7 µM | > 92.9 µM | > 100 µM | > 100 µM | 42.2 µM |
| Cc1cc(C)c(-c2noc(-c3ccc(Cl)cc3)c2C2=NCCCN2)c(C)c1 | > 100 µM | 48.7 µM | 70.6 µM | 37.1 µM | 95.3 µM | 71.3 µM | 86 µM | 45.3 µM | > 100 µM | 40.7 µM |
| Clc1cccc(-c2nnc(-c3nn(-c4ccccc4)c4nc5ccccc5nc34)o2)c1 | > 100 µM | > 100 µM | > 100 µM | > 100 µM | > 100 µM | > 100 µM | > 100 µM | > 100 µM | > 100 µM | > 100 µM |
| O=C1c2ccccc2C2CCC1c1ccccc12 (stereo not given) | > 100 µM | 38 µM | > 100 µM | > 100 µM | > 100 µM | 70.6 µM | > 100 µM | 57 µM | > 100 µM | > 100 µM |
